Measured values reported in US20250188143A1, “COMBINED GENE AND RADIO THERAPY FOR THE TREATMENT OF CANCER” (FUNDACION PARA LA INVESTIGACION MEDICA APLICADA, priority 2022, published 2025).
Read-outs that look alike come from different tables or passages of the source.

Tests used:
HEK293 cells = assay: Synergism proof of principle III, IFN-β and IL-12 mRNA; format: cell-based, human; conditions: for IFN-β expression levels: hSTINGmut expressing HEK293 cells
Procedure: The IFN-β and the IL-12 mRNA expression levels were determined by qPCR as described above (example 1) and expression levels were quantified in reference to the indicated controls.

[1] = target: hSTING[R]-S162A/G230I/Q266I (Homo sapiens, UniProt Q86WV6, G230I/H232R/Q266I/S162A); conditions: cited from earlier work
Chain of hSTING[R]-S162A/G230I/Q266I (Q86WV6 whole entry S162A/G230I/H232R/Q266I): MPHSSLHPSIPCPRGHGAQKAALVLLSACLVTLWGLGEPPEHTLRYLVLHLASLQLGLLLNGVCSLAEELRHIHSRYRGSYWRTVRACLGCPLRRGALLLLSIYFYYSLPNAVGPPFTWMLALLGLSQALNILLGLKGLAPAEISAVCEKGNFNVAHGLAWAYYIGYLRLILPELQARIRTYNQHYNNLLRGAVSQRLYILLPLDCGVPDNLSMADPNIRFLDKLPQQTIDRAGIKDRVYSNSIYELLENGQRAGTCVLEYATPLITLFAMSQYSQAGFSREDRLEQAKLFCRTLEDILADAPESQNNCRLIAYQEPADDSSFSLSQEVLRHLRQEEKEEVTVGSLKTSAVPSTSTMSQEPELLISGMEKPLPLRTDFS

STING = tested on: STING
Procedure: C57 wild type mice, aged 6 to 10 weeks, were injected intravenously with an AAV8 vector encoding either hSTINGmut (AAV8-hSTINGmut, 1×10^11 viral genomes) or as a control GFP (AAV8-GFP, 1.5×10^11 viral genomes).

MC38 tumors = assay: Synergism of DMXAA and radiotherapy in a humanized mouse model in vivo, cytokine levels; set-up: species or system STING KO mice; conditions: tumor extracts 6 h after DMXAA 20 mg/kg; irradiated
human STING = human STING (Homo sapiens, UniProt Q86WV6, H232R); conditions: cited from earlier work
Chain of human STING (Q86WV6 whole entry H232R, the tested form may be a part): as the sequence (Q86WV6 whole entry S162A/G230I/H232R/Q266I) above, with A162S, I230G, I266Q counted along it

MC38 cells [2] = assay: Synergism proof of principle II, IL-12 mRNA; format: cell-based, murine; conditions: cells transduced with AAV8-hSTINGmut plus AAV8-ISREx4-IL12miR122T
Procedure: […] The resuspended viral particles were then added to the wells where the cells were seeded. […] The IL-12 mRNA was determined by qPCR as described above (example 3) and expression levels were quantified in reference to non-transduced, non-irradiated cells treated with vehicle.

hSTINGmut [3] = target: T1, hSTINGmut (Homo sapiens, UniProt Q86WV6, G230I/H232R/Q266I/S162A); assay: DMXAA mediated expression of STING-derived cytokines (qPCR); format: cell-based; conditions: hSTINGmut-transduced MC38 and Hep2G cells; 50 μg/mL DMXAA, 3 h or 6 h
T1 construct: expressed in transfected cells
T1 sequence (Q86WV6 whole entry S162A/G230I/H232R/Q266I): as the sequence (Q86WV6 whole entry S162A/G230I/H232R/Q266I) above
Procedure: (§1) As a readout, the expression of STING-derived cytokines was measured by qPCR.
(§2) To this end, MC38 and Hep2G cells have been transduced with lentiviruses encoding luciferase, hSTINGwt, hSTINGmut to obtain stable cell lines as described above or were not transduced with any lentivirus (no vector). Respective cells were seeded in 24-well plates at a density of 750 cells/mm^2 in growth medium. […] Cells were harvested and prepared for qPCR measurements as described above. The expression of the cytokines IFN-β, TNF-α, IL-6, CXCL9 and CXCL10 were measured for either experimental group and expression levels relative to controls (no vector) were quantified.

hSTINGwt = target: T2, hSTINGwt (Homo sapiens, UniProt Q86WV6, H232R); assay: as above; format: cell-based; conditions: other groups (luciferase, hSTINGwt, no vector); 50 μg/mL DMXAA
T2 construct: expressed in transfected cells
T2 sequence (Q86WV6 whole entry H232R): as the sequence (Q86WV6 whole entry S162A/G230I/H232R/Q266I) above, with A162S, I230G, I266Q counted along it
Procedure: as §1, §2

[4] = human, in vivo; cited from earlier work
hSTINGmut [5] = target: T1, hSTINGmut; assay: Time-course expression of STING-derived cytokines upon DMXAA treatment; format: cell-based; conditions: MC38 and Hep2G cells encoding hSTINGmut; 50 μg/mL DMXAA; any given timepoint
Procedure: The objective of this experiment was to examine the time-course of STING-derived cytokine expression upon DMXAA treatment. As a readout, the expression of STING-derived cytokines was measured by qPCR.
To this end, stable cell lines of MC38 and Hep2G cells encoding hSTINGmut have been obtained as described above. […] Cells were harvested and prepared for qPCR measurements as described above.

MC38 cells [6] = assay: Synergism proof of principle I, IFN-β mRNA; format: cell-based, murine
Procedure: To this end, MC38 cells received 8 Gy or 0 Gy as described above (example 7). Cells were seeded thereafter at 750 cells/mm^2 density and were then either mock-transduced or transduced with AAV8-hSTINGmut (1×10^5 viral genomes/cell). For cell transduction 8.5×10^9 viral genomes of AAV8-hSTINGmut from known concentration stock solutions, were resuspended in 50 μl RPMI 2% FBS. The resuspended viral particles were then added to the wells where the cells were seeded.

established tumors = conditions: intratumor injections; STING-dependent; cited from earlier work
[7] = tested on: native non-transduced MC38 cells; assay: Synergism proof of principle IV, IFN-β protein; format: cell-based, murine
Source text: To this end, native non-transduced MC38 cells received 0 Gy, 2 Gy or 8 Gy as described above.

[8] = 5 or 10 mg DMXAA/kg, AAV8-hSTINGmut transduced mice

Cc1ccc2c(=O)c3cccc(CC(=O)O)c3oc2c1C [DMXAA, 5,6-Dimethylxanthenone-4-acetic acid]
IL-12 expression levels (HEK293 cells; HEK293 cells expressing ISREx4-IL12miR122T, radiation and further DMXAA treatment): significant increase in IL-12 expression levels
IFN-β expression levels (HEK293 cells; DMXAA 50 μg/mL): upregulated
IFN-β expression levels (HEK293 cells; DMXAA plus additional irradiation 8 Gy): significantly increased
activation of hSTING[R]-S162A/G230I/Q266I [1]: highly activated
IFN-β levels in serum (STING; 20 mg DMXAA/kg i.p., AAV8-GFP transduced control animals, 3 h after injection): elevation of IFN-β levels
toxicity and mortality (STING; 20 mg DMXAA/kg repeated, AAV8-GFP and AAV8-hSTINGmut mice (systemic STING stimulation)): high toxicity and mortality
IFN-β levels in serum (STING; [8]): only very low levels
toxicity and mortality (STING; [8]): neither cause significant toxicity nor mortality
intratumor levels of IL-12 (MC38 tumors): increased significantly
activation of human STING (human STING): unable to activate
IL-12 mRNA levels (MC38 cells [2]; irradiated with 8 Gy): strong elevation
IL-12 mRNA levels (MC38 cells [2]; non-irradiated): slight elevation
expression of cytokines IFN-β, TNF-α, IL-6, CXCL9 and CXCL10 (hSTINGmut [3]): elevated
expression of cytokines IFN-β, TNF-α, IL-6, CXCL9 and CXCL10 (hSTINGwt): no significant alteration
efficacy in clinical trials [4]: lack of efficacy
tolerability in clinical trials [4]: well tolerated and only displayed minor side effects
time-course of STING-derived cytokine expression (hSTINGmut [5]): increase in expression levels
IFN-β mRNA expression (MC38 cells [6]; hSTINGmut-transduced MC38, 8 Gy, DMXAA 50 μg/mL 6 h): further increased
IFN-β mRNA expression (MC38 cells [6]; hSTINGmut-transduced MC38, no irradiation, DMXAA): intermediate expression
IFN-β mRNA expression (MC38 cells [6]; non-transduced MC38, 8 Gy, DMXAA 50 μg/mL 6 h): increase in IFN-β expression
CD8+ T cell priming and tumor elimination (established tumors): effectively prime CD8+ T cell responses and promote elimination of the established tumors
IFN-β production (ELISA) ([7]; 8 Gy plus DMXAA at different doses, 24 h or 48 h): exceeding the sum of those obtained with radiation alone and DMXAA alone
IFN-β production (ELISA) ([7]; single dose 8 Gy, DMXAA 50 μg/mL 24 h later, collected after another 24 h): enhanced
